Laboratory results: patent publication US8962793B2, “ErbB interface peptidomimetics and methods of use thereof” (The Trustees of the University of Pennsylvania, priority 2001, dated 2015)
Where two headings read alike, the source gives them in different places. Bridge positions count the residues as written; N and C are the ends. Peptide text beside a SMILES is read from it.

Legend:
ErbB2 = molecular target: T1, ErbB2 (Homo sapiens, UniProt P04626); experiment: Surface plasmon resonance (Biacore) binding to immobilized ErbB2 extracellular domain
T1 construct: provided by Dr. Che Law, Xcyte Therapeutics, Seattle
Method: The designed erbB peptides were tested for binding to erbB receptors using surface plasmon resonance (Biacore) technology (described supra) using soluble erbB-1 and erbB-3. The response was plotted in real time in the form of sensorgram curves. Dissociation constants (Kd) were determined as described (Park, et al. 2000, Nat. Biotechnol. 18:194-198).
A sensorgram for binding of B2-S22-APE peptide to erbB receptors immobilized on the sensor chip was performed.
(§1) Binding experiments were performed with the surface plasmon resonance based biosensor instrument Biacore 3000 (Biacore AB, Uppsala, Sweden), at 25° C. […] (erbB2) and Dr. Mark A. Lemmon, Department of Biochemistry and Biophysics, University of Pennsylvania School of Medicine (erbB1 and erbB3). Immobilization of the erbB receptors in the sensor surface was performed following the standard amine coupling procedure according to manufacturer's instructions. Briefly, 35 μl of a solution containing 0.2 M N-ethyl-N′-(dimethylaminopropyl) carbodiimide (EDC) and 0.05 M N-hydroxysuccinimide (NHS), were injected at a flow rate of 5 μl/min to activate carboxyl groups on the sensor chip surface. Receptors (40 ng/ml in 10 mM NaOAc buffer, pH 5.0) were flowed over the chip surface at a flow rate of 20 μl/min until the desired level bound protein was reached. Unreacted protein was washed out and unreacted activated groups were blocked by the injection of 35 μl of 1 M ethanolamine at 5 μl/min. […] A reference surface was generated simultaneously under the same conditions but without receptor injection and used as a blank to correct for instrument and buffer artifacts. Peptides were injected at variable concentrations at 20 μl/min flow rate and binding to the receptors immobilized on the chip was monitored in real time. Each sensorgram consists of an association phase (first 240 s), reflecting binding of the injected peptide to the receptor, followed by a dissociation phase (300 s), during which the running buffer is passed over the chip and the bound peptide is being washed off the receptor surface.

ErbB1 = molecular target: T2, ErbB1 (Homo sapiens, UniProt P00533); experiment: Surface plasmon resonance (Biacore) binding to immobilized ErbB1 extracellular domain
T2 construct: gift of Dr. Mark A. Lemmon, University of Pennsylvania School of Medicine
Method: (§2) The designed erbB peptides were tested for binding to erbB receptors using surface plasmon resonance (Biacore) technology (described supra) using soluble erbB-1 and erbB-3. The response was plotted in real time in the form of sensorgram curves.
as §1

[1] = molecular target: T3, erbB3-erbB3 homomerization (Homo sapiens, UniProt P21860); experiment: SPR inhibition of HRGβ1-induced binding of ErbB3 to immobilized ErbB3; settings: peptide 10 μm, ErbB3 300 nm, HRGβ1 5 μM
T3 construct: the ectodomains of erbB receptors were immobilized on the surface chip; erbB3: gift of Dr. Mark A. Lemmon
Method: (§3) The effect of cysteine-knot mimetics on receptor self-associations, was examined using a Biacore assay in which the ectodomains of erbB receptors were immobilized on the surface chip and the ectodomain of erbB3 was injected at 300 nM concentrations either alone or in the presence of 5 μM hereglunin HRGβ1.
(§4) The effect of the erbB peptides on heregulin-induced receptor self-associations was studied by preinjecting them at 10 μM followed by injection of erbB3-HRGβ1 (FIG. 4; 1B, 2B, 3B).
as §1

[2] = molecular target: T4, erbB3-erbB1 heteromerization (Homo sapiens, UniProt P00533); experiment: SPR inhibition of HRGβ1-induced binding of ErbB3 to immobilized ErbB1; settings: peptide 10 μm, ErbB3 300 nm, HRGβ1 5 μM
T4 construct: the ectodomains of erbB receptors were immobilized on the surface chip; erbB1 and erbB3: gift of Dr. Mark A. Lemmon
Method: as §3, §4, §1

ErbB3 = molecular target: T5, ErbB3 (Homo sapiens, UniProt P21860); experiment: Surface plasmon resonance (Biacore) binding to immobilized ErbB3 extracellular domain
T5 construct: gift of Dr. Mark A. Lemmon, University of Pennsylvania School of Medicine
Method: as §2, §1

[3] = molecular target: T6, erbB3-erbB2 heteromerization (Homo sapiens, UniProt P04626); experiment: SPR inhibition of HRGβ1-induced binding of ErbB3 to immobilized ErbB2; settings: peptide 10 μm, ErbB3 300 nm, HRGβ1 5 μM
T6 construct: the ectodomains of erbB receptors were immobilized on the surface chip; erbB2: Dr. Che Law, Xcyte Therapeutics; erbB3: Dr. Mark A. Lemmon
Method: as §3, §4, §1

erbB2-SbdIV = molecular target: T7, erbB2-SbdIV (Homo sapiens, UniProt P04626); experiment: Surface plasmon resonance binding to immobilized recombinant erbB2-SbdIV
T7 construct: The DNA fragment encoding the subdomain IV of erbB2 (erbB2-SbdIV) was generated by polymerase chain reaction; GST (N); made in house; host or cells: Escherichia coli BL-21 (DE3), vector pGEX-5X-3
Text: Since erbB peptides are derived from subdomain IV of different erbB receptors, this fact indicates direct involvement of subdomain IV in receptor-receptor interactions between the members of erbB receptor family.
The DNA fragment encoding the subdomain IV of erbB2 (erbB2-SbdIV) was generated by polymerase chain reaction. The upstream primer was 5′-[…]-3′ [SEQ ID NO: 44] and the downstream primer was 5′-[…]-3′. [SEQ ID NO: 45] These two primers were designed to include BamHI and Not I restriction sites, respectively, for inframe insertion into the BamHI/Not I linearized pGEX-5X-3 vector. Recombinant vector was used to infect Escherichia coli BL-21 (DE3). 100 ml of the 2XYT medium were inoculated with 10 ml of the overnight culture and grown at 37° C. until the OD600 of 0.4-0.5 was reached. IPTG was added to the medium at the final concentration of 0.1 mM and grown for 2 hrs. The cells were spun down by centrifugation at 4,000 g for 10 min and resuspended with 5 ml of cold PBS (with DTT, PMSF and aprotinin at the final concentration of 5 mM, 1 mM and 1 μg/ml respectively). After sonication on ice, Triton X-100 was added to the final concentration of 1% and the solution was rocked at 4° C. for 1 hr and centrifuged at 10,000 g for 10 min. 100 μl of glutathione sepharose bead was then added to the supernatant. It was rocked at 4° C. for 2-4 hrs, centrifuged and washed three times with PBS. 100 μl elution buffer was added followed by rotation for 10 min at room temperature, centrifugation at 300 g for 1 min and collection of the supernatant. Elutions were repeated three times and combined.
Binding experiments were performed with the surface plasmon resonance based biosensor instrument Biacore 3000 (Biacore AB, Uppsala, Sweden), at 25° C. Recombinant purified erbB receptors were provided by Dr. Che Law, Xcyte Therapeutics, Seattle, Wash. […] Peptides were injected at variable concentrations at 20 μl/min flow rate and binding to the receptors immobilized on the chip was monitored in real time. […]

[4] = immobilized extracellular domain, surface plasmon resonance, read-out: KD (μM) ErbB2
[5] = immobilized extracellular domain, surface plasmon resonance, read-out: KD (μM) ErbB1
[6] = immobilized extracellular domain, surface plasmon resonance, read-out: KD (μM) ErbB3
[7] = FIG. 3A, erbB receptors immobilized on the sensor chip, global fitting to 1:1 Langmurian interaction model
[8] = erbB2-SbdIV immobilized on the surface chip, FIG. 3B

T7 sequence (P04626 509-657): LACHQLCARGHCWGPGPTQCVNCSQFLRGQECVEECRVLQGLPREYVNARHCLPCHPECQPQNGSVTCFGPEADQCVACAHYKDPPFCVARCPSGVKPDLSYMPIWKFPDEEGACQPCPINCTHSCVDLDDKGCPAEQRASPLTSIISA
T6 sequence (P04626 23-652 limits assumed, one chain of several): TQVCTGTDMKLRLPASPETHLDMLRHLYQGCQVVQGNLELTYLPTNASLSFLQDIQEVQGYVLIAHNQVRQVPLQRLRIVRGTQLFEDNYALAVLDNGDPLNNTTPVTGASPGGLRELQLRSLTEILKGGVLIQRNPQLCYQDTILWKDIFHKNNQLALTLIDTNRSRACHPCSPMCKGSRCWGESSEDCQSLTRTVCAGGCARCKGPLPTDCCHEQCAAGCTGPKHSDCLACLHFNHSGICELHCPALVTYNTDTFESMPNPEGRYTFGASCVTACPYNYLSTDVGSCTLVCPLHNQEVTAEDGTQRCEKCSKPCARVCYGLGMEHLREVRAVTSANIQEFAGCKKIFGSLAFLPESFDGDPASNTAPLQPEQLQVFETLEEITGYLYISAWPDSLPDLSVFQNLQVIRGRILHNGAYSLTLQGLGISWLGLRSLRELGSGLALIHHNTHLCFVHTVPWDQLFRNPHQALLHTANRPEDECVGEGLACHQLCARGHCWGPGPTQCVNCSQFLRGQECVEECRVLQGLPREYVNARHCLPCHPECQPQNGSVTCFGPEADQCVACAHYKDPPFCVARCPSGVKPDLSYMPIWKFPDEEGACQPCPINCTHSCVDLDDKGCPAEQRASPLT
T1 sequence (P04626 23-652 limits assumed): as the sequence (P04626 23-652 limits assumed, one chain of several) above
T2 sequence (P00533 25-645 limits assumed): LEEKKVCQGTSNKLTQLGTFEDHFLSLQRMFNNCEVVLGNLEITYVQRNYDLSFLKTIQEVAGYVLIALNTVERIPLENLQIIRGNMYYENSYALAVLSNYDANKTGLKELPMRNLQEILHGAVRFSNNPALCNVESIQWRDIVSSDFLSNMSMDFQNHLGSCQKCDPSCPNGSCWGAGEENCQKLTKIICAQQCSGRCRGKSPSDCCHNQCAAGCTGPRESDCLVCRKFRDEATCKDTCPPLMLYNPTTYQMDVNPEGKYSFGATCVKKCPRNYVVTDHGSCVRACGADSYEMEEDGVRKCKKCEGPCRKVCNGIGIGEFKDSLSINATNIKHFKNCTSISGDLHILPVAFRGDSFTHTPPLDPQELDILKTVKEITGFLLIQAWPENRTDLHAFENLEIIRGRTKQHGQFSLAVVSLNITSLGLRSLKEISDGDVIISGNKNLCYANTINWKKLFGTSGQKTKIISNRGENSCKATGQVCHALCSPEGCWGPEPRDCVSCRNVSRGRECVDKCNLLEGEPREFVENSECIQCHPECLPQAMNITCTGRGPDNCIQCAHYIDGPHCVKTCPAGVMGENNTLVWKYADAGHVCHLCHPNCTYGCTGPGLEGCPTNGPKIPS
T4 sequence (P00533 25-645 limits assumed, one chain of several): as the sequence (P00533 25-645 limits assumed) above
T5 sequence (P21860 20-643 limits assumed): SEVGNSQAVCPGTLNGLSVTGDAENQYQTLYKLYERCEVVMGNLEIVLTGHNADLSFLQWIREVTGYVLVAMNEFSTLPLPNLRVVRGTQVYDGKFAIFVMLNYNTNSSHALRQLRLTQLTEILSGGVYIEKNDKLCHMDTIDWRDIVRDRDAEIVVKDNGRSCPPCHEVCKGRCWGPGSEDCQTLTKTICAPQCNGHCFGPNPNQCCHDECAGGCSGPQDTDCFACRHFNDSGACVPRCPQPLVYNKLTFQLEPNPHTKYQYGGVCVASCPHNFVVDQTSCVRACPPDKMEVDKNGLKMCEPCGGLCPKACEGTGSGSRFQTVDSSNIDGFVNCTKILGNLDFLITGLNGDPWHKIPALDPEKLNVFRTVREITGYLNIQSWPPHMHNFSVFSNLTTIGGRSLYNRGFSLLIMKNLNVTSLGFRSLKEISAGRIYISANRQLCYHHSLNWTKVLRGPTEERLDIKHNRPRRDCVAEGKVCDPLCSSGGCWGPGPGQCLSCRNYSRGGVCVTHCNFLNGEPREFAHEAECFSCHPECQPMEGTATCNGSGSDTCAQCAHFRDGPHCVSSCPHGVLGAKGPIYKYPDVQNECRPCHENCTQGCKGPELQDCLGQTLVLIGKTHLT
T3 sequence (P21860 20-643 limits assumed): as above

Kd (ErbB2; [4]) [µM]	Kd (ErbB1; [5]) [µM]	Percent Inhibition ErbB3 [1] [%]	Percent Inhibition ErbB1 [2] [%]	Kd (ErbB3; [6]) [µM]	Percent Inhibition ErbB2 [3] [%]	Compound	koff (ErbB2; [7]) [s⁻¹]	kon (ErbB2; [7]) [M⁻¹ s⁻¹]	Kd (ErbB2; KD (μM) ErbB2, immobilized extracellular domain, surface plasmon resonance) [µM]	Kd (ErbB2; dissociation constant (Kd), FIG. 3A, koff/kon ratio) [µM]	Kd (ErbB1) [µM]	Kd (ErbB3) [µM]	Kd (erbB2-SbdIV) [nM]	koff (erbB2-SbdIV; [8]) [s⁻¹]	kon (erbB2-SbdIV; [8]) [M⁻¹ s⁻¹]
0.371	0.449	75.1	65.2	0.288	71.4	CC(C)C[C@@H]1NC(=O)[C@@H](NC(=O)[C@@H](N)Cc2ccc(O)cc2)CSSC[C@@H](C(=O)N[C@@H](Cc2ccc(O)cc2)C(N)=O)NC(=O)CNC(=O)[C@H](C)NC(=O)[C@H](CC(=O)O)NC(=O)[C@H](C)NC(=O)[C@H](Cc2ccc(O)cc2)NC(=O)[C@H](CCCCN)NC(=O)[C@H](Cc2c[nH]c3ccccc23)NC(=O)[C@H](C(C)C)NC1=O [B1-S22-ALG] (H-YCLVWKYADAGCY-NH2; disulfide 2-12)									
0.549	0.472	32.4	69.0	1.07	58.1	CC[C@H](C)[C@@H]1NC(=O)[C@@H]2CCCN2C(=O)[C@@H](NC(=O)[C@@H](N)Cc2ccc(O)cc2)CSSC[C@@H](C(=O)N[C@@H](Cc2ccc(O)cc2)C(N)=O)NC(=O)[C@H](CCC(N)=O)NC(=O)[C@H](C(C)C)NC(=O)[C@H](CC(=O)O)NC(=O)[C@@H]2CCCN2C(=O)[C@H](Cc2ccc(O)cc2)NC(=O)[C@H](CCCCN)NC(=O)[C@H](Cc2ccc(O)cc2)NC1=O [B3-S22-APQ] (H-YCPIYKYPDVQCY-NH2; disulfide 2-12)									
0.639	0.583	72.8	60.3	0.394	54.2	CC[C@H](C)[C@@H]1NC(=O)[C@H](Cc2ccccc2)NC(=O)[C@@H](NC(=O)[C@@H](N)Cc2ccc(O)cc2)CSSC[C@@H](C(=O)N[C@@H](Cc2ccc(O)cc2)C(N)=O)NC(=O)[C@H](CC(=O)O)NC(=O)[C@@H]2CCCN2C(=O)[C@H](CC(=O)O)NC(=O)[C@H](C)NC(=O)[C@H](Cc2ccc(O)cc2)NC(=O)[C@H](CCCCN)NC(=O)[C@H](Cc2ccccc2)NC1=O [B4-S22-AFD] (H-YCFIFKYADPDCY-NH2; disulfide 2-12)									
> 1000	> 1000	3.1	2.4	> 1000	−1.2	CC[C@H](C)[C@@H]1NC(=O)[C@H](Cc2ccc(O)cc2)NC(=O)[C@@H](NC(=O)[C@@H](N)Cc2ccccc2)CSSC[C@@H](C(=O)N[C@@H](Cc2ccc(O)cc2)C(N)=O)NC(=O)[C@H](CCC(N)=O)NC(=O)[C@H](CC(=O)O)NC(=O)[C@H](CCC(=O)O)NC(=O)[C@H](C(C)C)NC(=O)[C@H](CCC(=O)O)NC(=O)CNC1=O [CD4-G, reference compound] (H-FCYIGEVEDQCY-NH2; disulfide 2-11)									

Compound	Kd (ErbB2; [4]) [µM]	Kd (ErbB1; [5]) [µM]	Percent Inhibition ErbB3 [1] [%]	Percent Inhibition ErbB1 [2] [%]	Kd (ErbB3; [6]) [µM]	Percent Inhibition ErbB2 [3] [%]	koff (ErbB2; [7]) [s⁻¹]	kon (ErbB2; [7]) [M⁻¹ s⁻¹]	Kd (ErbB2; KD (μM) ErbB2, immobilized extracellular domain, surface plasmon resonance) [µM]	Kd (ErbB2; dissociation constant (Kd), FIG. 3A, koff/kon ratio) [µM]	Kd (ErbB1) [µM]	Kd (ErbB3) [µM]	Kd (erbB2-SbdIV) [nM]	koff (erbB2-SbdIV; [8]) [s⁻¹]	kon (erbB2-SbdIV; [8]) [M⁻¹ s⁻¹]
CC[C@H](C)[C@@H]1NC(=O)[C@@H]2CCCN2C(=O)[C@@H](NC(=O)[C@@H](N)Cc2ccc(O)cc2)CSSC[C@@H](C(=O)N[C@@H](Cc2ccc(O)cc2)C(N)=O)NC(=O)[C@H](CCC(=O)O)NC(=O)[C@H](CCC(=O)O)NC(=O)[C@H](CC(=O)O)NC(=O)[C@@H]2CCCN2C(=O)[C@H](Cc2ccccc2)NC(=O)[C@H](CCCCN)NC(=O)[C@H](Cc2c[nH]c3ccccc23)NC1=O [B2-S22-APE] (H-YCPIWKFPDEECY-NH2; disulfide 2-12)			42.7	80.3		51.1	0.000685	3240	1.53	0.21	0.21	1.4	1890	0.00307	1620
